Tests used:
Format in all cases: cell-based, human
[1] = system: hPSC-derived and primary HSCs; experiment: Cell migration (scratch) assay; conditions: 48 hrs
hPSC-derived HSCs = experiment: In vitro activation of quiescent HSCs; conditions: for activation of hPSC-HSCs (COL1A1, FN, ACTA2 western blot): TGFβ1 5 ng/ml, FBS 10%, PDGF 30 ng/ml, 72 hrs
PNPLA3^WT liver cultures = experiment: IL6 supplementation of liver cultures
Experimental: FIG. 15. Elevated IL6/STAT3 activity mediates the enhanced susceptibility to NAFLD phenotypes in PNPLA3^I148M liver cultures (A). Analysis of IL6 by ELISA in the supernatant of shRNA control (Ctrl) or sh-IL6 liver cultures maintained in lipotoxic condition for two weeks. Shown are mean±SD from 3 independent experiments. (B). From the experiment in (A), the transcript levels of CHI3L1 and CXCL10 in purified macrophages were analyzed by RT-qPCR. Shown are mean±SD from 3 independent experiments. (C-D). From the experiment in (A), HSCs were purified and subject to western blot analysis of STAT3 and phosphorylated STAT3 (T705) (C), and to RT-qPCR analysis of the transcript levels of inflammatory cytokine CCL5 and quiescent marker PPARG (D). For western blot, RPS11 was used as a loading control. For RT-qPCR, shown are mean±SD from 3 independent experiments. (E-H). The isogenic pair of liver cultures were maintained in lipotoxic condition for two weeks in the presence of either isotype control antibody (Ctrl) or IL6 neutralizing antibody (nIL6 Ab, 100 ng/ml). Individual cells were purified from these liver cultures and subject to RT-qPCR analysis of lipogenic-associated enzyme genes ACC1 and FASN in hepatocytes (E) and inflammatory cytokine CHI3L1 in macrophages (F), western blot analysis of HSC activation markers FN, COL1A1, and ACTA2 (G), and phosphorylated STAT3 (H) in HSCs. For western blot, RPS11 was used as a loading control. For RT-qPCR, shown are mean±SD from 3 independent experiments. (I-J). PNPLA3^WT liver cultures were treated with either healthy or lipotoxic condition for 5 days and then IL6 (100 pg/ml) was added to one set of lipotoxic treated cultures for additional 2 days. Hepatocytes were purified and subject to analysis for triacylglycerol (TAG) level (I), transcript levels of ACC1 and FASN (J) by RT-qPCR. For TAG quantification, shown are mean±SD for 4 independent experiments; for RT-qPCR, shown are mean±SD from 3 independent experiments. Statistical analysis was performed using a two-tailed unpaired t-test with Welch's corrections or One-way ANOVA/Tukey's multiple comparisons test to calculate exact p-values.
As a complementary approach, we determined if IL6 was sufficient to enhance NAFLD susceptibility in lipotoxic conditions by supplementing IL6 in PNPLA3^WT cultures to a level similar to that of PNPLA3^I148M cultures. We began after 5 days of lipotoxic exposure when disease phenotypes begin to manifest (FIG. 5B) and only maintained liver cultures for 2 more days to minimize the compounded effect of continuous IL6 secretion on our observations. […] Changes in glucose secretion were not detected, however, likely due to the brevity of IL6 supplementation.
Intracellular triacylglycerol levels were analyzed for hPSC-derived HEPs purified from different conditions using commercial kits (Promega) per the manufacturer's instructions.

[2] = system: hPSC-derived multicellular liver culture; experiment: LPS treatment of multicellular liver culture
From the text: FIG. 2. Characterization of the multicellular liver culture. (A) Albumin secretion from three-cell (HEP/HSC/Mac), two-cell (HEP/HSC), and HEP monoculture, n=3. (B) Analysis of CYP3A4 and CYP2B6 transcripts in hepatocytes, n=4. (C) Analysis of LRAT transcript in HSCs from three-cell (HSC/HEP/Mac), two-cell (HSC/HEP, HSC/Mac) and HSC monoculture, n=4. (D) Staining of lipid droplets, hepatocytes (ALB), and HSCs (PCDH7). (E) Analysis of IL10 transcript in individual cell-type at three-weeks post-coculture, n=4. (F) Analysis of IL6 and TNF transcripts in macrophages, n=4. Positive control: IFNγ-treated macrophages. (G) Cytokines analysis in liver cultures treated with LPS (500 ng/ml) or control, with or without macrophages, n=4. Data are mean±S.D; Student's t-test (two-tailed) with Welch's corrections (B); One-way ANOVA with Tukey's multiple comparisons test (A, C, E-G).
FIG. 10. Characterization of multicellular liver culture. (A). Transcript levels of PPARG were analyzed in purified HSCs from the hPSC-derived liver cultures with three-cell (HSC, HEP, and Mac), two-cell (HSC and HEP, HSC and Mac) and HSC monoculture at the indicated time points post co-culture by RT-qPCR. […] Transcript levels of IL10 and macrophages marker CD163 were analyzed in purified macrophages from the hPSC-derived liver cultures with three-cell (HSC, HEP, and Mac) and two-cell (Mac and HEP, Mac and HSC) by RT-qPCR. […] HSC activation markers FN and COL1A1 were analyzed by western blot in HSCs purified from three-cell (HEP, HSC and Mac) and two-cell (HSC and HEP, HSC and Mac) liver cultures treated with LPS (100 ng/ml) for one week. […] Transcript levels of TGFB1 and IL1B in pooled cells from the liver cultures of three-cell (HSC, HEP, and Mac) and two-cell (HSC and HEP) were analyzed at one week post LPS (100 ng/ml) treatment by RT-qPCR. […] Transcript levels of IL1B and TGFB1 in purified individual cells from liver cultures treated with either vehicle control or LPS (100 ng/ml) for one week were analyzed by RT-qPCR. Fold changes were calculated by normalized to individual cells treated with vehicle control. […]

[3] = system: Kupffer cells and hPSC-macrophages; experiment: Stimulation of macrophages, cytokine transcripts by RT-qPCR; conditions: LPS 100 ng/ml, 12 hrs
[4] = lipotoxic 5 days, then IL6 100 pg/ml for 2 days

## C[C@@H](N)[C@H]1CC[C@H](C(=O)Nc2ccncc2)CC1 [Y-27632, reference compound]
[1]; Y-27632 20 μM
  motility of activated hPSC-HSCs (closure distance): markedly inhibited

## TGFβ1: transforming growth factor beta 1, pro-fibrotic stimulus
[1]; activating stimulus, similar to pHSCs
  motility of hPSC-HSCs (closure distance): enhanced motility
hPSC-derived HSCs
  activation of hPSC-HSCs (COL1A1, FN, ACTA2 western blot): clearly activated

## IL6: interleukin 6, cytokine supplemented to liver cultures
PNPLA3^WT liver cultures; IL6-treated liver cultures
  regulation of genes that drive the GO results of I148M homozygous patients: readily regulated
PNPLA3^WT liver cultures; IL6 addition under lipotoxic conditions
  activation of HSCs from PNPLA3^WT cultures: dramatically activated
PNPLA3^WT liver cultures; [4]
  changes in glucose secretion: not detected
  intracellular TAG levels in PNPLA3^WT hepatocytes: increased
  lipogenesis-associated enzyme expression in PNPLA3^WT hepatocytes: increased

## lipopolysaccharide [LPS]
hPSC-derived HSCs; LPS 500 ng/ml, 12 hrs
  cytokine induction in hPSC-HSCs (IL6, CXCL10 transcripts): induced cytokine
[2]; LPS 100 ng/ml, one week
  HSC activation markers in liver culture: elevated activation markers
  cytoplasmic lipid droplets in HSCs in liver culture: lost cytoplasmic lipid droplets
[2]; LPS treatment (500 ng/ml, FIG. 2G)
  IL1β and TGFβ1 levels produced by liver cultures: much higher levels
[3]
  inflammatory cytokine transcription in macrophages (CXCL10, IL6, IL1B): transcribed inflammatory cytokines

B1: PDGF: platelet-derived growth factor, pro-fibrotic stimulus (protein, UniProt P01127 82-190, looked up)
Platelet-derived growth …: SLGSLTIAEPAMIAECKTRTEVFEISRRLIDRTNANFLVWPPCVEVQRCSGCCNNRNVQCRPTQVQLRPVQVRKIEIVRKKPIFKKATVTLEDHLACKCETVAAARPVT
modifications: homodimer PDGF-BB
notes: platelet-derived growth factor, pro-fibrotic stimulus
hPSC-derived HSCs
  activation of hPSC-HSCs (COL1A1, FN, ACTA2 western blot): clearly activated
